From patent US9186353B2, “Treatment of osteoarthritis pain” (AbbVie Inc., priority 2009, dated 2015)

What was measured:
[1] = test system: adult osteoarthritic rats; experiment: MIA-OA osteoarthritis pain model, hind limb grip force; format: in vivo, Male Sprague Dawley rats; conditions: Rattus norvegicus, 480 h, read-out: % Effect; for inhibition in vivo at 1 mg/kg: 1 mg/kg i.p.; for inhibition in vivo at 3 mg/kg: 3 mg/kg i.p.
Experimental: This model, the MIA-OA model is well known to those skilled in the art. A general review of various models of pain is found in Joshi and Honore, Expert Opinion in Drug Discovery (2004) 1, pp. 323-334, and in the book ‘Drug Discovery and Evaluation, 2nd edition’ (H. Gerhard Vogel, editor; Springer-Verlag, New York, 2002; pp. 702-706).
Pain behavior was assessed by measurement of hind limb grip force (GF) in adult osteoarthritic rats. Male Sprague Dawley rats, 325-350 g, were injected in the unilateral knee join with a single intra-articular injection of sodium monoiodoacetate (MIA). All rats were tested at 20 days following MIA injection. A behavioral measure of activity-induced pain was carried out. Measurements of the peak hind limb grip force were conducted by recording the maximum compressive force (CFmax), in grams of force, exerted on a hind limb strain gauge setup, in a commercially available grip force measurement system (Columbus Instruments, Columbus, Ohio).
During testing, each rat was gently restrained by grasping it around its rib cage and then allowed to grasp the wire mesh frame attached to the strain gauge. The experimenter then moved the animal in a rostral-to-caudal direction until the grip was broken. Each rat was sequentially tested twice at approximately 2-3 min interval to obtain a raw mean grip force (CFmax). This raw mean grip force data was in turn converted to a maximum hindlimb cumulative compressive force (CFmax), as the grams of force/kg of body weight, for each animal.
For evaluating the compound effects, the hind limb grip force was conducted 20 days following the intra-articular injection of MIA. A group of age-matched naïve (not injected with MIA) animals was added as a comparator to the drug-dosed groups. The vehicle control response for each group of MIA-treated animals was defined as the 0% response (0% effect), whereas the naïve control group was defined as the normal response and as 100% effect. The % effects for each dose group was expressed as % return of response to normalcy, compared to the naïve group. That is, the % effect=(Treatment CFmax−Vehicle CFmax)/Vehicle CFmax]×100). Higher % effect numbers indicate increased relief from the pain in the model, with 100% indicating a return to the level of response seen in normal (non-osteoarthritic) animals. All experiments evaluating drug effects in this model were conducted in a randomized blinded fashion.
Male Sprague Dawley rats (250-300 g body weight) obtained from Charles River Laboratories (Wilmington, Mass.) were used for all experiments, unless indicated otherwise. The animals were housed in Association for Assessment and Accreditation of Laboratory Animal Care (AAALAC) approved facilities at Abbott Laboratories in a temperature-regulated environment under a controlled 12-h light-dark cycle, with lights on at 6:00 a.m. Food and water were available ad libitum at all times except during testing. All testing was done following procedures outlined in protocols approved by Abbott Laboratories' Institutional Animal Care and Use Committee.

[2] = ip, hind limb grip force (CFmax) 20 days after intra-articular MIA, % return to normalcy vs naive, mean ± SEM

SMILES: O=c1cccnn1-c1ccc2nc([C@H]3C[C@@H](N4CCCCC4)C3)sc2c1 [Example 1, Cis-2-[2-(3-piperidin-1-ylcyclobutyl)-1,3-benzothiazol-6-yl]pyridazin-3(2H)-one]
- inhibition in vivo at 1 mg/kg [1, 2]: 51 ± 6%
- inhibition in vivo at 3 mg/kg [1, 2]: 79 ± 6%
- melting point: 127 to 128 °C

SMILES: O=c1cccnn1-c1ccc2nc([C@H]3C[C@H](N4CCCCC4)C3)sc2c1 [Example 2, Trans-2-[2-(3-piperidin-1-ylcyclobutyl)-1,3-benzothiazol-6-yl]pyridazin-3(2H)-one]
- inhibition in vivo at 3 mg/kg [1, 2]: 43 ± 13%

SMILES: O=C1[C@@H](O)CCN1c1ccc2nc(C3CC(N4CCCCC4)C3)sc2c1 (stereo partly drawn) [Example 3, (S)-3-Hydroxy-1-[2-(3-piperidin-1-yl-cyclobutyl)-benzothiazol-6-yl]-pyrrolidin-2-one]
- inhibition in vivo at 1 mg/kg [1, 2]: 26 ± 2%
- inhibition in vivo at 3 mg/kg [1, 2]: 53 ± 5%

SMILES: C[C@@H]1CCCN1CCc1cc2cc(-c3ccc(C#N)cc3)ccc2o1 [Example 4, (4-(2-(2-[2(R)-Methyl-1-pyrrolidinyl]ethyl)-1-benzofuran-5-yl)benzonitrile)]
- inhibition in vivo at 1 mg/kg [1, 2]: 40 ± 4%
- inhibition in vivo at 3 mg/kg [1, 2]: 56 ± 6%

SMILES: CNC(=O)c1ccc(Oc2ccc3c(c2)CCN(C2CCC2)CC3)nc1 [Example 5, (6-(3-Cyclobutyl-2,3,4,5-tetrahydro-1H-benzo[d]azepin-7-yloxy)-N-methyl-nicotinamide), reference compound]
- inhibition in vivo at 1 mg/kg [1, 2]: 54 ± 5%
- inhibition in vivo at 3 mg/kg [1, 2]: 74 ± 4%

SMILES: CNC(=O)c1cnc(Oc2ccc3c(c2)CCN(C2CCC2)CC3)cn1 [Example 6, (5-(3-cyclobutyl-2,3,4,5-tetrahydro-1H-benzo[d]azepin-7-yloxy)-N-methylpyrazine-2-carboxamide), reference compound]
- inhibition in vivo at 1 mg/kg [1, 2]: 65 ± 9%
- inhibition in vivo at 3 mg/kg [1, 2]: 90 ± 17%

SMILES: CC(C)N1CCCN(C(=O)C2CCN(c3ccc(C(F)(F)F)nc3)CC2)CC1 [Example 7, (4-isopropyl-1,4-diazepan-1-yl)(1-(6-(trifluoromethyl)pyridin-3-yl)piperidin-4-yl)methanone, reference compound]
- inhibition in vivo at 1 mg/kg [1, 2]: 51 ± 8%
- inhibition in vivo at 3 mg/kg [1, 2]: 66 ± 6%

SMILES: C[C@H]1CCCN1C[C@H]1C[C@@H]1c1ccc(-n2ncccc2=O)cc1 [Example 8, 2-[4-((1S,2S)-2-{[(2S)-2-methylpyrrolidin-1-yl]methyl}cyclopropyl)phenyl]pyridazin-3(2H)-one]
- inhibition in vivo at 1 mg/kg [1, 2]: 47 ± 6%
- inhibition in vivo at 3 mg/kg [1, 2]: 68 ± 4%
- inhibition in vivo at 10 mg/kg ([1]; ip, 10 mg/kg i.p., hind limb grip force (CFmax) 20 days after intra-articular MIA, % return to normalcy vs naive, mean ± SEM): 82 ± 5%

SMILES: Cc1ccc(-c2cc(C(F)(F)F)nn2-c2ccc(S(N)(=O)=O)cc2)cc1 [celecoxib, reference compound]
- inhibition in vivo at 30 mg/kg ([1]; 30 mg/kg, positive control, hind limb grip force 20 days after MIA): 89%
